Article PMC6720511, “Synthesis and biological evaluation of novel N-(piperazin-1-yl)alkyl-1H-dibenzo[a,c]carbazole derivatives of dehydroabietic acid as potential MEK inhibitors” (Journal of Enzyme Inhibition and Medicinal Chemistry, 2019)
Where two headings read alike, the source gives them in different places.

Key:
SMMC-7721 = assay: MTT cytotoxic assay; type: cell-based, human; conditions: mean value ± SD
Experimental: (§1) Three human hepatocarcinoma cell lines (SMMC-7721, HepG2 and Hep3B) and normal hepatocyte cell line (QSG-7701) were maintained in Dulbecco Modified Eagle Medium (DMEM) containing 4.0 mM L-Glutamine and 4500 mg/l Glucose supplemented with 10% (v/v) foetalbovine serum (FBS) and 100 unites/mL penicillin/streptomycin at 37 °C in humidified atmosphere of 5% CO2 and 95% air.
(§2) The in vitro cytotoxic activities of the carbazole derivatives of DHA were evaluated against three human hepatocarcinoma cell lines (SMMC-7721, HepG2 and Hep3B) and a normal human hepatocyte cell line (QSG-7701) via the MTT colorimetric method. Briefly, SMMC-7721, HepG2, Hep3B and QSG-7701 cells were harvested at log phase of growth and seeded in 96-well plates (100 µL/well at a density of 2 × 10^5 cells/mL). After 24 h incubation at 37 °C and 5% CO2 to allow cell attachment, cultures were exposed to various concentrations of the isolated compounds for 48 h. Finally, MTT solution (2.5 mg/mL in PBS) was added (40 µL/well). Plates were further incubated for 4 h at 37 °C, and the formazan crystals formed were dissolved by adding 150 µL/well of DMSO. Absorption at 570 nm was measured with an ELISA plate reader. […] Doxorubicin was co-assayed as positive control.

Hep3B = assay: MTT cytotoxic assay; type: cell-based, human; conditions: 48 h, mean value ± SD
Experimental: as §1, §2

HepG2 = assay: MTT cytotoxic assay; type: cell-based, human; conditions: mean value ± SD
Experimental: as §1, §2

[1] = tested on: three human hepatocarcinoma cell lines (SMMC-7721, HepG2 and Hep3B); assay: MTT cytotoxic assay, statements over the three cancer cell lines; type: cell-based; conditions: for cytotoxic activity against three cancer cell lines (in words): SMMC-7721, HepG2 and Hep3B
Experimental: as §1, §2

[2] = tested on: normal hepatocyte cell line (QSG-7701); assay: MTT cytotoxic assay on normal hepatocytes; type: cell-based, human; conditions: mean value ± SD
Experimental: as §1, §2

MEK1 = target: T1, MEK1 (Homo sapiens, UniProt Q02750); assay: In vitro MEK1 inhibition assay (ADP-Glo kinase assay); type: biochemical; conditions: recombinant GST-MEK1, GST-ERK2, 10 µM ATP, mean value ± SD; read-out: MEK1 inhibitory activity IC50 value
T1 construct: purchased Carna Biosciences, Japan
Experimental: An in vitro kinase assay of MEK1 was performed using ADP-Glo kinase assay (Promega, Madison, WI, USA) according to the manufacturer’s protocol. […] Reactions were stopped by adding 5 µL of ADP-Glo reagent to each well. After incubating at 22 °C for 40 min, 10 µL of the kinase detection reagent was added and the plates were incubated for another 30 min at 22 °C in the dark. The reaction mixture was analysed by EnSpire (PerkinElmer, Waltham, MA, USA). U0126 was used as the positive control for MEK1 inhibition.

[3] = at least one of SMMC-7721, HepG2, Hep3B, read-out: IC50 against at least one hepatocarcinoma cell line
[4] = over SMMC-7721, HepG2 and Hep3B, read-out: IC50 against the three cancer cell lines
[5] = Homo sapiens, at least one of SMMC-7721, HepG2, Hep3B, read-out: IC50 against at least one hepatocarcinoma cell line

T1 sequence (Q02750 whole entry): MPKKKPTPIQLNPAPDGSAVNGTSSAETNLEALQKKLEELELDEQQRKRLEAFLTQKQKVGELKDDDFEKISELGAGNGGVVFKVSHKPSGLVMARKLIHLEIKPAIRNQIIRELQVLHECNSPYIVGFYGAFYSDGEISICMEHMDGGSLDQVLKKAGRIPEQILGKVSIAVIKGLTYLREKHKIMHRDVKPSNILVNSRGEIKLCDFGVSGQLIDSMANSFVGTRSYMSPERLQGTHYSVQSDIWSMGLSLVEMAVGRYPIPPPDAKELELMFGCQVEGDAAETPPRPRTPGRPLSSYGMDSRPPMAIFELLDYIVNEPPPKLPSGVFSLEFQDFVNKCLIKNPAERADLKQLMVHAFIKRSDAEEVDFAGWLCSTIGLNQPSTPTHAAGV

| Compound | IC50 (SMMC-7721; 48 h) [µM] | IC50 (Hep3B) [µM] | IC50 (HepG2; 48 h) [µM] | IC50 [1, 3] [µM] | IC50 ([2]; 48 h) [µM] | cytotoxic activity against three cancer cell lines (in words) [1] | IC50 [1, 4] [µM] | IC50 (SMMC-7721; Homo sapiens, SMMC-7721, 48 h) [µM] | IC50 (Hep3B; Homo sapiens, Hep3B) [µM] | IC50 (HepG2; Homo sapiens, HepG2, 48 h) [µM] | IC50 [1, 5] [µM] | IC50 ([2]; Homo sapiens, QSG7701, 48 h) [µM] | IC50 (MEK1) [µM] |
| --- | --- | --- | --- | --- | --- | --- | --- | --- | --- | --- | --- | --- | --- |
| 2,3,4,4a,9,13c-Hexahydro-7-isopropyl-1,4a-dimethyl-9–(2-(1,4-diazepan-1-yl) propyl)-1H-dibenzo[a,c]carbazole-1-carboxylic acid methyl ester [Compound 7d] | 10.3 ± 1.02 | 12.8 ± 0.67 | 8.68 ± 1.13 | < 10 | 32.8 ± 3.22 | – | – | – | – | – | – | – | – |
| 2,3,4,4a,9,13c-Hexahydro-7-isopropyl-1,4a-dimethyl-9–(2-(4-ethylpiperazin -1-yl)butyl)-1H-dibenzo[a,c]carbazole-1-carboxylic acid methyl ester [Compound 8c] | > 50 | > 50 | > 50 | – | – | weak or no inhibitions | – | – | – | – | – | – | – |
| 2,3,4,4a,9,13c-Hexahydro-7-isopropyl-1,4a-dimethyl-9–(2-(4-ethylpiperazin -1-yl)propyl)-1H-dibenzo[a,c]carbazole-1-carboxylic acid methyl ester [Compound 7c] | > 50 | 40.7 ± 2.62 | > 50 | – | – | weak or no inhibitions | – | – | – | – | – | – | – |
| 2,3,4,4a,9,13c-Hexahydro-7-isopropyl-1,4a-dimethyl-9–(2-(4-formylpiperazin-1-yl)butyl)-1H-dibenzo[a,c]carbazole-1-carboxylic acid methyl ester [Compound 8e] | 32.1 ± 2.78 | 38 ± 1.75 | 41.2 ± 3.56 | – | > 50 | moderate inhibitions | – | – | – | – | – | – | – |
| 2,3,4,4a,9,13c-Hexahydro-7-isopropyl-1,4a-dimethyl-9–(2-(4-formylpiperazin-1-yl)propyl)-1H-dibenzo[a,c]carbazole-1-carboxylic acid methyl ester [Compound 7e] | 23.3 ± 2.35 | 20 ± 1.22 | 16.9 ± 1.58 | – | > 50 | moderate inhibitions | – | – | – | – | – | – | – |
| 2,3,4,4a,9,13c-Hexahydro-7-isopropyl-1,4a-dimethyl-9–(2-(piperazin-1-yl) butyl)-1H-dibenzo[a,c]carbazole-1-carboxylic acid methyl ester [Compound 8a] | 6.1 ± 0.47 | 2.89 ± 0.27 | 4.8 ± 0.32 | < 10 | 23.4 ± 2.97 | – | 2.89 to 6.1 | – | – | – | – | – | – |
| 2,3,4,4a,9,13c-Hexahydro-7-isopropyl-1,4a-dimethyl-9–(2-(piperazin-1-yl) propyl)-1H-dibenzo[a,c]carbazole-1-carboxylic acid methyl ester [Compound 7a] | 5.1 ± 0.18 | 1.37 ± 0.2 | 3.1 ± 0.45 | < 10 | 17.2 ± 1.89 | – | 1.37 to 5.1 | – | – | – | – | – | – |
| COC(=O)C1(C)CCCC2(C)c3ccc(C(C)C)cc3-c3c(c4ccccc4n3CCN3CCN(C)CC3)C12 (stereo not shown) [Compound 6b, 2,3,4,4a,9,13c-Hexahydro-7-isopropyl-1,4a-dimethyl-9–(2-(4-methylpiperazin-1-yl)ethyl)-1H-dibenzo[a,c]carbazole-1-carboxylic acid methyl ester] | – | – | – | – | – | – | – | 13.2 ± 0.76 | 6.78 ± 0.42 | 11.7 ± 0.58 | < 10 | 27.5 ± 1.87 | – |
| CCN1CCN(CCn2c3c(c4ccccc42)C2C(C)(C(=O)OC)CCCC2(C)c2ccc(C(C)C)cc2-3)CC1 (stereo not shown) [Compound 6c, 2,3,4,4a,9,13c-Hexahydro-7-isopropyl-1,4a-dimethyl-9–(2-(4-ethylpiperazin-1-yl)ethyl)-1H-dibenzo[a,c]carbazole-1-carboxylic acid methyl ester] | – | – | – | – | – | moderate activity | – | 14 ± 2.1 | 11 ± 0.65 | 17.4 ± 1.73 | – | 41.1 ± 3.69 | – |
| COC(=O)C1(C)CCCC2(C)c3ccc(C(C)C)cc3-c3c(c4ccccc4n3CCN3CCCNCC3)C12 (stereo not shown) [Compound 6d, 2,3,4,4a,9,13c-Hexahydro-7-isopropyl-1,4a-dimethyl-9–(2-(1,4-diazepan-1-yl)ethyl)-1H-dibenzo[a,c]carbazole-1-carboxylic acid methyl ester] | – | – | – | – | – | – | – | 7.01 ± 0.74 | 6.31 ± 0.33 | 5.87 ± 0.42 | < 10 | 22.1 ± 2.75 | – |
| COC(=O)C1(C)CCCC2(C)c3ccc(C(C)C)cc3-c3c(c4ccccc4n3CCN3CCN(C=O)CC3)C12 (stereo not shown) [Compound 6e, 2,3,4,4a,9,13c-Hexahydro-7-isopropyl-1,4a-dimethyl-9–(2-(4-formylpiperazin-1-yl)ethyl)-1H-dibenzo[a,c]carbazole-1-carboxylic acid methyl ester] | – | – | – | – | – | moderate inhibitions | – | 17.3 ± 1.78 | 11.4 ± 0.53 | 15.7 ± 1.61 | – | > 50 | – |
| COC(=O)C1(C)CCCC2(C)c3ccc(C(C)C)cc3-c3c(c4ccccc4n3CCCN3CCN(C)CC3)C12 (stereo not shown) [Compound 7b, 2,3,4,4a,9,13c-Hexahydro-7-isopropyl-1,4a-dimethyl-9–(3-(4-methylpiperazin-1-yl)propyl)-1H-dibenzo[a,c]carbazole-1-carboxylic acid methyl ester] | – | – | – | – | – | – | – | 6.8 ± 0.72 | 5.98 ± 0.39 | 29 ± 1.29 | < 10 | > 50 | – |
| COC(=O)C1(C)CCCC2(C)c3ccc(C(C)C)cc3-c3c(c4cc(C)ccc4n3CCN3CCNCC3)C12 (stereo not shown) [Compound 10a, 2,3,4,4a,9,13c-Hexahydro-7-isopropyl-1,4a,12-trimethyl-9–(2-(piperazin-1-yl)ethyl)-1H-dibenzo[a,c]carbazole-1-carboxylic acid methyl ester] | – | – | – | – | – | – | – | 1.73 ± 0.22 | 1.17 ± 0.12 | 3.05 ± 0.37 | – | 16.3 ± 1.56 | 6.36 ± 0.51 |
| COC(=O)C1(C)CCCC2(C)c3ccc(C(C)C)cc3-c3c(c4cccc(C)c4n3CCN3CCNCC3)C12 (stereo not shown) [Compound 10b, 2,3,4,4a,9,13c-Hexahydro-7-isopropyl-1,4a,10-trimethyl-9–(2-(piperazin-1-yl)ethyl)-1H-dibenzo[a,c]carbazole-1-carboxylic acid methyl ester] | – | – | – | – | – | – | – | 5.52 ± 0.47 | 5.03 ± 0.31 | 6.11 ± 0.38 | – | 21.9 ± 1.72 | > 20 |
| CCc1ccc2c(c1)c1c(n2CCN2CCNCC2)-c2cc(C(C)C)ccc2C2(C)CCCC(C)(C(=O)OC)C12 (stereo not shown) [Compound 10c, 2,3,4,4a,9,13c-Hexahydro-12-ethyl-7-isopropyl-1,4a-dimethyl-9–(2-(piperazin-1-yl)ethyl)-1H-dibenzo[a,c]carbazole-1-carboxylic acid methyl ester] | – | – | – | – | – | – | – | 6.56 ± 0.19 | 5.84 ± 0.36 | 7.27 ± 0.51 | – | 22.2 ± 1.81 | > 20 |
| COC(=O)C1(C)CCCC2(C)c3ccc(C(C)C)cc3-c3c(c4cc(C(C)C)ccc4n3CCN3CCNCC3)C12 (stereo not shown) [Compound 10d, 2,3,4,4a,9,13c-Hexahydro-7,12-diisopropyl-1,4a-dimethyl-9–(2-(piperazin-1-yl)ethyl)-1H-dibenzo[a,c]carbazole-1-carboxylic acid methyl ester] | – | – | – | – | – | – | – | 10.5 ± 0.48 | 8.85 ± 0.42 | 8.42 ± 0.39 | – | 31 ± 2.39 | > 20 |
| COC(=O)C1(C)CCCC2(C)c3ccc(C(C)C)cc3-c3c(c4cc(OC)ccc4n3CCN3CCNCC3)C12 (stereo not shown) [Compound 10e, 2,3,4,4a,9,13c-Hexahydro-7-isopropyl-12-methoxy-1,4a-dimethyl-9–(2-(piperazin-1-yl)ethyl)-1H-dibenzo[a,c]carbazole-1-carboxylic acid methyl ester] | – | – | – | – | – | – | – | 3.02 ± 0.21 | 4.38 ± 0.35 | 3.73 ± 0.19 | – | 15.3 ± 1.13 | 1.28 ± 0.06 |
| COC(=O)C1(C)CCCC2(C)c3ccc(C(C)C)cc3-c3c(c4cccc(OC)c4n3CCN3CCNCC3)C12 (stereo not shown) [Compound 10f, 2,3,4,4a,9,13c-Hexahydro-7-isopropyl-10-methoxy-1,4a-dimethyl-9–(2-(piperazin-1-yl)ethyl)-1H-dibenzo[a,c]carbazole-1-carboxylic acid methyl ester] | – | – | – | – | – | – | – | 2.03 ± 0.15 | 2.23 ± 0.16 | 3.15 ± 0.13 | – | 17.3 ± 0.78 | 0.23 ± 0.03 |
| COc1cccc2c1C(=O)c1c(O)c3c(c(O)c1C2=O)C[C@@](O)(C(=O)CO)C[C@@H]3O[C@H]1C[C@H](N)[C@H](O)[C@H](C)O1 [Doxorubicin, reference compound] | – | – | – | – | – | – | – | 1.13 ± 0.11 | 1.02 ± 0.09 | 2.38 ± 0.29 | – | 13.8 ± 0.53 | – |
